This is an account of results in US20230158041A1, “METHODS AND COMPOSITIONS FOR TREATING AUTOSOMAL DOMINANT POLYCYSTIC KIDNEY DISEASE” (OTSUKA PHARMACEUTICAL CO.,LTD., priority 2021, published 2023).

Data set [1] has as its target T1, (OAT)3 (Homo sapiens, UniProt Q8TCC7).
T1 sequence (Q8TCC7 1-542): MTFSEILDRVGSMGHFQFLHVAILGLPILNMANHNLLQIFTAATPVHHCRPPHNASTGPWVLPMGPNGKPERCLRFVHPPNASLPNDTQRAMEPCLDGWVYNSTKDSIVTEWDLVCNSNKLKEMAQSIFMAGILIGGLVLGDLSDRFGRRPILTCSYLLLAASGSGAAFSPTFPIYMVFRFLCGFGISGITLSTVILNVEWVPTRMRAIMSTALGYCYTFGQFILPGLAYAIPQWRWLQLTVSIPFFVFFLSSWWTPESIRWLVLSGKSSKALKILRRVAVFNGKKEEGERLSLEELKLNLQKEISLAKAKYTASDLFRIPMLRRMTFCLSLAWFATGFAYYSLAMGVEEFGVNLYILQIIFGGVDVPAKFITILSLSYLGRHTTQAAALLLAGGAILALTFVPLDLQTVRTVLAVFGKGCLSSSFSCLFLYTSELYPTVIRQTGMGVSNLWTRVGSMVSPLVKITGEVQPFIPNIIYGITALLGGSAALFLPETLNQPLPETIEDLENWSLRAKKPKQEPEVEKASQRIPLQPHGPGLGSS
Put plainly: Estrone 3-sulfate transport inhibition in HEK293 cells stably expressing human (OAT)3. The class given is cell-based. Details: host or cells: HEK293.
Experimental: (OAT)3: Estrone 3-sulfate transport was evaluated in HEK293 cells stably expressing human (OAT)3 (kit with ready to use 24 well plates were obtained from GenoMembrane). […] DM-4103 concentrations of 0.064, 0.32, 1.6, 8.0, 40, and 200 μM were tested.

The target of data set [2] is T1, (OAT)3. Nature of the data set: Trial 2: (OAT)3 inhibition, furosemide in presence of DM-4103 vs. furosemide alone. The format is in vivo. Also noted: endogenous in cells; host or cells: healthy human subjects, in vivo. The settings on record: furosemide 48 hours following 7 days of 300 mg tolvaptan q.d.
The target in another data set is T2, human (OATP)1B1 (Homo sapiens, UniProt Q9Y6L6).
T2 sequence (Q9Y6L6 1-691): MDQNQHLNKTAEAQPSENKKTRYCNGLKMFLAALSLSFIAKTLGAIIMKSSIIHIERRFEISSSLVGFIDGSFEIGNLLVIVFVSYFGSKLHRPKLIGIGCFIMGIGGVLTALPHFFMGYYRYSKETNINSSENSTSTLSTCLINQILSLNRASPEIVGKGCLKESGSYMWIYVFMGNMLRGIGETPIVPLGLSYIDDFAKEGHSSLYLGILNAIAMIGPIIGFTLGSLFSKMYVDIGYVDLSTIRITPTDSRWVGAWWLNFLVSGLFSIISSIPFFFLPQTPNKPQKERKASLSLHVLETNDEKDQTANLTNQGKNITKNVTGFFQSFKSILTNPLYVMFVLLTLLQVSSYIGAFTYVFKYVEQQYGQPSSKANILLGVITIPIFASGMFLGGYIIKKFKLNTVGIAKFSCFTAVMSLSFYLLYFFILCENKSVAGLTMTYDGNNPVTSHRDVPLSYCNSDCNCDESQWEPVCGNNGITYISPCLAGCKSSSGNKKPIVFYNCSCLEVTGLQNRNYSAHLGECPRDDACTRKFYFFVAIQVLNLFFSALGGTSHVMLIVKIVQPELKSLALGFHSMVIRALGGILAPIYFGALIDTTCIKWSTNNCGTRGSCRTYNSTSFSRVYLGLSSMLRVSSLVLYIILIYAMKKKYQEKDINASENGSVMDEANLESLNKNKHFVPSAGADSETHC

A short description of data set [3]: Earlier clinical data for tolvaptan and DM-4103 (PK, tolerability; data on file). The format is in vivo, human.
The subject of the next data set is plasma protein. Put plainly: DM-4103 plasma protein binding, micropartition device (Centrifree YM-30) with HPLC-MS/MS. The class given is in vitro ADME. How it is done:
The effect of six other highly plasma protein bound compounds on DM-4103 binding was also evaluated. […] No potential for interaction at either transporter would have been predicted if a free fraction of 0.1% had been used, consistent with the clinical findings.

A further data set is described as follows: Tolvaptan solubility. The format is physicochemical. The settings on record: pH independent.
The target of data set [4] is T3, sodium-dependent tauro-cholate co-transporting polypeptide (NTCP) (Homo sapiens, UniProt Q14973).
T3 sequence (Q14973 1-349): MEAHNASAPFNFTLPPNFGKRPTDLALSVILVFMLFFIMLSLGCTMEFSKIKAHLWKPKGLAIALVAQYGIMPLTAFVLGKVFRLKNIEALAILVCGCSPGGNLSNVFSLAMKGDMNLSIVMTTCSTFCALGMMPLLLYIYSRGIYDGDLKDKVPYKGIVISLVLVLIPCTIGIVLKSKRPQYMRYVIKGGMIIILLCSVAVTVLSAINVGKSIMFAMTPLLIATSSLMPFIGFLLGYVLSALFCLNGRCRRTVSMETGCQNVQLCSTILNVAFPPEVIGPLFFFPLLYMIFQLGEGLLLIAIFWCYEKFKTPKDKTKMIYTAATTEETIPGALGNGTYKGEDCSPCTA
The settings on record: cited from earlier work.

The target in data set [5] is T4, BCRP (Homo sapiens, UniProt Q9UNQ0).
T4 sequence (Q9UNQ0 1-655): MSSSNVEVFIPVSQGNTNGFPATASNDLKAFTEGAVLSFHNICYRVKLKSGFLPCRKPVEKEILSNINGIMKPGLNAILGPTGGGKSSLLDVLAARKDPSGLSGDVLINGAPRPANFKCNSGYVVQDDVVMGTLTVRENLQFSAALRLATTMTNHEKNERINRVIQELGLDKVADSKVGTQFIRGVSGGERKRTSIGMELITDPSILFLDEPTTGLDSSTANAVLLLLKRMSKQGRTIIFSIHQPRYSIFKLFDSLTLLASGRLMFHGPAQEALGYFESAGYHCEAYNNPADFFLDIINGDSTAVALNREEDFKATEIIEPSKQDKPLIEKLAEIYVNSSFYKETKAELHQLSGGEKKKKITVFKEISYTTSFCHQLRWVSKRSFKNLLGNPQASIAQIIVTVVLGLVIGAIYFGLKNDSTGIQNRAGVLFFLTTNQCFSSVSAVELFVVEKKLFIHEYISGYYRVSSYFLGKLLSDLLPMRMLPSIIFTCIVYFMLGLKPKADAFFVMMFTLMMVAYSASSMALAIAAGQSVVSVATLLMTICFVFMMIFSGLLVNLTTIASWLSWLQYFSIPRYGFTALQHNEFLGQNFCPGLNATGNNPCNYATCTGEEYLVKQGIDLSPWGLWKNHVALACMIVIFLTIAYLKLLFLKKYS
Put plainly: Trial 1: BCRP inhibition, rosuvastatin + tolvaptan vs. rosuvastatin alone. The class given is in vivo. The settings on record: 90 mg tolvaptan with 5 mg rosuvastatin calcium. Details: endogenous in cells; host or cells: healthy human subjects, in vivo. How it is done:
(§1) Trial 1 was designed as an open-label, 3-period, sequential crossover. […] On days 7 to 13, 300 mg tolvaptan was administered q.d.
An analysis of variance with a factor of period and random effect of subjects was performed on the natural-log transformed PK parameters using the MIXED procedure in SAS. From each analysis, the least square means, their difference, and the 90% CI for their difference were derived. Then, the anti-logs of the difference and the confidence limits provided the estimate and 90% CI for the ratio of the geometric means of the test treatment to the reference treatment. Only subjects with values in both treatments were used in the analysis.

The conditions of data set [6]: 300 mg tolvaptan for 5 days, healthy subjects; cited from earlier work.
The conditions of data set [7]: predicted; cited from earlier work.
Data set [8] can be described thus: Phase II and III congestive heart failure trials: tolvaptan with furosemide. The format is in vivo, human. The settings on record: tolvaptan+furosemide compared with placebo+furosemide.
A short description of data set [9]: Phase III ADPKD trials: statin use with tolvaptan. As to conditions: subjects taking tolvaptan alone or tolvaptan plus statins. The class given is in vivo, human.
For data set [10], the system named is sandwich-cultured human hepatocytes. The settings on record: cited from earlier work.
The target of data set [11] is T4, BCRP.
Experimental: BCRP: Prazosin transport was evaluated in MDCKII BCRP-expressing cells (obtained from SOLVO Biotechnology) precultured for six to eight days.
The conditions of data set [12]: in vivo; cited from earlier work.
The nature of data set [13]: Trial 1: plasma rosuvastatin PK, tolvaptan and DM-4103 plasma concentrations, adverse events in healthy subjects. The method, then: as §1
Doses on pharmacokinetic (PK) sampling days were administered in the fasted state with 240 ml of room temperature still water. No food was allowed from 10 h prior to dosing until lunch was given following the 4 h post-dose assessments; water was available ad libitum except for +/−2 h around dosing. On non-PK sampling days, tolvaptan was administered at least 30 min prior to breakfast. Safety was evaluated by laboratory values, vital signs, and 12-lead electrocardiogram (ECG) at screening, day 1, and discharge (no ECG), and adverse event reports.
A 90 mg dose of tolvaptan was chosen as it is the highest dose administered at any given time in the treatment of ADPKD.
The assay used to determine plasma tolvaptan concentrations also included DM-4103 as a standard. The precursor→production was m/z 479→252.

The structures appear in SMILES notation. “Also recorded” adds a separate entry of the source. Marks after values point to notes of the source that are not given here.

Experimental for human (OATP)1B1: (OATP)1B1: Estradiol 17β-D-glucuronide transport was evaluated in HEK293 cells stably expressing human (OATP)1B1 (kit with ready to use 24 well plates were obtained from GenoMembrane). […] DM-4103 concentrations of 0.064, 0.32, 1.6, 8.0, 40, and 200 μM were tested.

Take `CCCN(CCC)S(=O)(=O)c1ccc(C(=O)O)cc1` [Probenecid]: the inhibition at 30 µM at (OAT)3 [1] (HEK293, read-out: inhibition of estrone 3-sulfate transport) is 91.1%.

`Cc1ccccc1C(=O)Nc1ccc(C(=O)Nc2ccc(Cl)cc2C(=O)CCC(=O)O)c(C)c1` [DM-4103]: on (OAT)3 [2], the “inhibition of (OAT)3 in healthy subjects” value was “No inhibition; also recorded: not an inhibitor”. Further, on (OAT)3 [1] ((OAT)3 overexpressing HEK293 cells, read-out: IC50 estimate, inhibition of estrone 3-sulfate transport), the IC50 was 425 nM. In addition, at (OAT)3 [1] (Imax,u/IC50 for (OAT)3, fu,p 0.01), the “DM-4103 concentration at which the ratio is equal to 0.1” value is about 2034 ng/mL. Besides, the “inhibitor of (OAT)3 in vitro” value against (OAT)3 [1] (in vitro) is listed as “inhibitor”. For the same compound, at human (OATP)1B1, the IC50 was 255 nM and the “inhibitor of (OATP)1B1 in vitro” value is given as “inhibitor”. The plasma concentrations result in data set [3] (first 2 hours following a 90 mg tolvaptan dose) was “less than 100 ng/ml”. Besides, in data set [3] (human, in vivo), the elimination half-life was about 180 h and the “time to steady-state concentrations after the start of tolvaptan dosing” value is about 8 weeks. Moreover, the “plasma protein binding (PPB)” value in the data set with plasma protein is reported as “greater than 99.8%”. For the same compound, the “DM-4103 binding in presence of six other highly plasma protein bound compounds” value with plasma protein (all samples, no interactions detected) is “greater than 99.8%”.

On to `Cc1ccccc1C(=O)Nc1ccc(C(=O)N2CCCC(O)c3cc(Cl)ccc32)c(C)c1` (stereo not shown) [tolvaptan, 7-chloro-5-hydroxy-1-[2-methyl-4-(2-methylbenzoylamino)benzoyl]-2,3,4,5-tetrahydro-1H-benzoazepine], for which the solubility result in the data set “Tolvaptan solubility” is listed as “about 0.01 g/250 ml”. Besides, in data set [4], the “NTCP IC50 value relative to Cmax” value is reported as “higher than Cmax” and the “inhibitor of NTCP” value is recorded as “inhibitor of NTCP”. Further, the “inhibition of BCRP in healthy subjects” value at BCRP [5] is on record as “No clinically-relevant inhibition”. For the same compound, in [6], the “safety and tolerability” value is “safe and well-tolerated”. In [3] (human, in vivo), this compound gave a half-life of about 3.5 h. For the same compound, the “accumulation” value in [3] (steady-state concentrations achieved on day 1) is recorded as “no accumulation”. In data set [7], the “liver:blood ratio” value is 38.76. The “incidence of adverse events” value in [8] is given as “similar”. Besides, in data set [9], the “statin use or incidences of statin-related adverse events” value was “no differences”. Further, in data set [10], the “accumulation in sandwich-cultured human hepatocytes” value is “at least 10 fold”. This compound came in with an IC50 against BCRP [11] of 8320 nM. In addition, at BCRP [11] (human), the “Igut/IC50 (printed as predicted Ki)” value is listed as 96.4.

Turning to `CC(C)c1nc(N(C)S(C)(=O)=O)nc(-c2ccc(F)cc2)c1/C=C/[C@@H](O)C[C@@H](O)CC(=O)O` [rosuvastatin], the “observed increases in rosuvastatin maximal peak plasma concentration (Cmax)” value in data set [12] is on record as “up to 11 fold”. Moreover, the Tmax in [13] (5 mg ROS in presence of DM-4103, median) was determined as 4.00 h. The time of peak concentration (Tmax) in data set [13] (5 mg rosuvastatin + 90 mg tolvaptan, median) came to 3.03 h. The “TEAE incidence: nausea” value in [13] (human, in vivo) came out at 12.5%. In addition, in data set [13] (human, in vivo, 5 mg), the AUCt was 18.9 ng·h/mL, the “AUC∞” value was 20.3-36.0** ng*h/ml, the maximum concentration (Cmax) is 2.81 ng/mL and the Tmax was 3.50 h. In data set [13] (human, in vivo, 5 mg), the “t1/2, z” value is 2.4-4.3** h.

A word on the inhibition: it is the percentage by which the read-out fell short of the control. As usually defined, the IC50 is the midpoint of a concentration-inhibition curve. In general, half-life refers to the time needed for the level to fall by half in the phase considered. Higher therefore signals slow decline. For orientation: Tmax means the time from dosing to the highest level. By Cmax is commonly meant the highest concentration seen after dosing.
